Patent US20190001002A1, “DRUG DESIGN FOR APPLICATION-DEPENDENT PAYLOAD, CONTROLLED PHARMACOKINETIC DISTRIBUTION, AND RENAL CLEARANCE” (General Electric Company, priority 2017, published 2019)
Where two headings read alike, the source gives them in different places.

How the values were obtained:
[1] = Pharmacokinetic modeling of active element (iodine or tantalum) concentration in pig blood/plasma after contrast agent injection; assay type: in vivo; details: plasma, other: injection
Text: Given this illustration of endothelial permeability, it may be appreciated that, immediately after administration, small-molecule contrast agents begin to distribute from the blood pool into interstitial fluid. Due to this “distribution phase”, the concentration of the contrast agent in the blood pool becomes immediately diluted by a factor of two or more in the first minutes after injection. This is illustrated in FIG. 3 where the concentration of the contrast agent iopromide in pig plasma is illustrated as a function of time, with both a distribution phase and elimination phase being evident.
This distribution occurs at a relatively fast rate, with a half-life (T½a) on the order of minutes and is denoted as the distribution phase in FIG. 3. […] Therefore, the concentration of the molecule in the blood would decrease approximately four fold in much less than 10 minutes due to this initial distribution process alone. However, the drug is simultaneously cleared from the blood by the kidneys at a slower rate, with a T½ on the order of 1-2 hours (denoted as the elimination phase in FIG. 3), resulting in an additional lowering of the concentration in the blood.
In a separate analysis, PK modeling was obtained by analyzing the concentration of the active element (iodine or tantalum) in blood samples taken from 2 to 240 minutes after contrast agent injection. […]

[2] = Contrast-enhanced liver CT scans of swine in fat-equivalent encasements, multi-reader image quality assessment; assay type: in vivo; details: swine CT in adipose-equivalent encasements, relative to TaCZ, FIG. 6
Protocol: The scans were performed one day to one week apart, and the scan sequence was randomized. During scanning, the pigs were encased in plastic fat-equivalent encasements to emulate a range of large patient sizes. Scans were performed in the pigs' livers at several time points from 30 to 300 seconds after injection. Image quality at each time point was graded by radiologists using predefined criteria such as image contrast in specified vessels.
In FIG. 6, images 220 on the left were acquired using a conventional iodinated contrast agent, iopromide, while images 220 on the right were acquired using the TaCZ nanoparticle contrast agent described above. Vertically, the images are arranged based on patient size.
In FIG. 7, the results of the multi-reader assessment are provided in graphical form.

For `COCC(=O)Nc1c(I)c(C(=O)NCC(O)CO)c(I)c(C(=O)N(C)CC(O)CO)c1I` (stereo not drawn) [iopromide], the half-life ([1]; FIG. 3, read-out: distribution-phase half-life (T½a) in plasma) was < 0.0833 h, the half-life ([1]; cleared from the blood by the kidneys, FIG. 3, read-out: clearance half-life T½ (elimination phase)) was 1 to 2 h and the “image contrast enhancement as patient size (and X-ray energy) increases” value [2] was “decreases”.
